Test results: patent US20260108451A1, “COMPOSITIONS FOR THE MANAGEMENT OF HIRSUTISM” (priority 2022, published 2026)

Tested on: Ornithine decarboxylase (ODC)
Test: Expression of ornithine decarboxylase (ODC) by flow cytometry in dermal papilla cells
Assay type: cell-based, human
Settings: Control 26.8%
Procedure: Dermal papilla cells (DPC) were cultured in DMEM medium with 10% FBS and seeded in 96 well tissue culture plate for the test. 24 hrs post seeding, DPC were treated with the test sample Ar-Turmerone at graded concentrations and incubated for 48 hrs in 5% CO2 incubator at 37° C. After 48 hrs the cells were collected from each well. These cells were incubated with Fluorescein isothiocyanate (FITC) labelled Ornithine-de-carboxylase antibody. After being washed with sterile PBS, samples were resuspended in PBS (pH 7.4) and acquired directly on the Flow cytometer. A fluorescence trigger was set on the FITC (FL1) parameter of the gated DPC populations (10,000 events). Percentage decrease of ODC expression in test samples was calculated with respect to un-treated cells (control), (FIG. 1).

For `NCCCC(N)(C(=O)O)C(F)F` (stereo not shown) [Eflornithine], the “% Expression of ODC at 100 μg/ml” value was 11.4%.
